{"source": "a melting point compilation (Tetko et al.; mined from patent text by program, amines drawn as free bases though some values may be those of a salt)"}
{"units": {"melting point": "°C"}}
{"smiles": "COc1ccccc1N1CCN(CCn2c(=O)c3sccc3n(C(C)=O)c2=O)CC1", "melting point": "156 to 158"}
{"smiles": "COc1ccc2c(c1)cc(Cc1cc3ccccc3n1S(=O)(=O)c1ccccc1)n2S(=O)(=O)c1ccccc1", "melting point": "98 to 100"}
{"smiles": "[N-]=[N+]=NS(=O)(=O)c1ccc(N2CC(CO)OC2=O)cc1", "note": "(stereo unspecified)", "melting point": "108 to 110"}
{"smiles": "CCc1nc2ncnn2c(N)c1CCCCC(F)=C(F)F", "melting point": 199}
{"smiles": "CCCC(C(=O)N(CC)CC)n1cc(C)c(-c2ccccc2)n1", "note": "(stereo unspecified)", "melting point": "65 to 67"}
{"smiles": "O=C1O[C@@H](CN2CCC(Cc3ccc(F)cc3)CC2)CN1c1ccc(O)cc1", "melting point": "164 to 165"}
{"smiles": "CC(C)(C)OC(=O)Nc1ccc(-c2cccnc2)cc1[N+](=O)[O-]", "melting point": "107 to 109"}
{"smiles": "COc1ccc(Br)c2nc(SCc3ccccc3)nn12", "melting point": "78 to 79"}
{"smiles": "CCCCCC(CC(=O)Nc1cc(C(N)=O)ccc1C(C)(C)C)c1ccc(C(O)CCC)cc1OC", "note": "(stereo unspecified)", "melting point": "153 to 155"}
{"smiles": "CN1C(=O)CN=C(N2CCC(C)(C)CC2)c2ccccc21", "melting point": "143 to 145"}
{"smiles": "NC(=O)c1ccnc(-c2cccc3cc(Cc4cccc(C(F)(F)F)c4)sc23)c1", "melting point": "177 to 178"}
{"smiles": "COC(=O)c1c(NC(=O)C(C)(C)C)c(Cl)cc(OC)c1OC", "melting point": "100 to 102"}
{"smiles": "COCCCNc1cc(C(F)(F)F)ccc1N", "melting point": "69 to 70"}
{"smiles": "NC(=O)COc1ccc2c(-c3ccccc3F)noc2c1Cl", "melting point": 172}
{"smiles": "COC(=O)c1cc(-n2c(Cl)nc(C(F)(F)F)cc2=O)c(F)cc1Cl", "melting point": "89 to 91"}
{"smiles": "O=C1OC(Br)c2cc(Br)ccc21", "note": "(stereo unspecified)", "melting point": 100}
{"smiles": "C#Cc1c(C#N)nn(-c2c(Cl)cc(C(F)(F)F)cc2Cl)c1N(C)C", "melting point": "145 to 147"}
{"smiles": "COC(=O)c1ccc(CCCCO)cc1", "melting point": "95.5 to 96"}
{"smiles": "c1cc2c(c(-c3nc4ncccc4o3)c1)CCCC2", "melting point": "87 to 90"}
{"smiles": "CCOC(=O)c1cn(C[C@@H]2CN(c3ccc(N4CCC5(CC4)OCCO5)c(F)c3)C(=O)O2)nn1", "melting point": "168 to 170"}
{"smiles": "O=C(CCC1CCCC1)N1CCN(C(=O)c2cc(C(F)(F)F)cc(C(F)(F)F)c2)[C@H](Cc2c[nH]c3ccccc23)C1", "melting point": "180 to 183"}
{"smiles": "COc1ccc(-c2cnc3cc4cnn(CCO)c4cc3n2)cc1F", "melting point": "192 to 195"}
{"smiles": "O=Cc1nn(-c2ccc([N+](=O)[O-])cc2)c2c1CCC2", "melting point": "209 to 210"}
{"smiles": "O=C1C2CCCN2S(=O)(=O)N1CSc1ccccc1", "note": "(stereo unspecified)", "melting point": "90.5 to 91.5"}
{"smiles": "CC(C)(C)OC(=O)CON=C(C(=O)O)c1cccc(NC=O)n1", "melting point": "162 to 168"}
{"smiles": "COC(=O)C[C@H](O)C[C@H](O)C=Cc1c(-c2ccc(F)cc2)c(-c2ccccc2)c(C(=O)Nc2ccccc2)n1C(C)C", "melting point": "154 to 155"}
{"smiles": "CC(C)CCCC(C)C1CC=C2C3=C(CCC21C)C1(C)CCC(F)CC1CC3", "note": "(stereo unspecified)", "melting point": 98.6}
{"smiles": "O=c1[nH][nH]c(C(F)(F)F)c1Cc1ccc(Br)cc1", "melting point": "135 to 136"}
{"smiles": "CCOC(=O)c1cnn(-c2ccc(OCC(C)C)c(C#N)c2)c1", "melting point": "138 to 139"}
{"smiles": "CC(CNC(=O)c1cccc(Oc2ccccc2)c1)N(O)C(N)=O", "note": "(stereo unspecified)", "melting point": "189 to 190"}
{"smiles": "O=C1Nc2cc(Cl)c(Cl)cc2C1c1ccccc1Cl", "note": "(stereo unspecified)", "melting point": "198 to 201"}
{"smiles": "C#CCCCCCCOC(=O)COc1ccc(F)c(C(N)=O)c1F", "melting point": "130 to 132"}
{"smiles": "OCCCc1cnoc1-c1ccc(F)c(Br)c1", "melting point": "57 to 58"}
{"smiles": "Clc1ccc(NC2=Nc3ccccc3CS2)cc1Cl", "melting point": "207 to 208"}
{"smiles": "CN(C)C(=O)CC(N)=S", "melting point": "111 to 114"}
{"smiles": "O=[N+]([O-])c1ccc2c(cnn2Cc2ccccc2[N+](=O)[O-])c1", "melting point": "102 to 103"}
{"smiles": "O=C(Nc1ccc(Cl)nc1)c1cccc(Cl)c1", "melting point": "227 to 229"}
{"smiles": "CN1C(=O)Cc2cccc(Cl)c21", "melting point": "111 to 113"}
{"smiles": "CCOC(=O)C1=C(CC)NN=C(C(=O)OC)C1c1cccc([N+](=O)[O-])c1", "note": "(stereo unspecified)", "melting point": 139}
{"smiles": "NS(=O)(=O)c1cc2cc[nH]c(=O)c2s1", "melting point": "295 to 297"}
{"smiles": "CC(C)(C)c1cc(OCCCCc2nnn[nH]2)cc(C(C)(C)C)c1O", "melting point": "141 to 142"}
{"smiles": "COc1ccc(NC(=O)c2ccc(OC)c(NC(=S)Nc3cc(Cl)cc(Cl)c3)c2)cc1", "melting point": "175 to 182"}
{"smiles": "Cc1nc(-c2ccc(-c3cccs3)cc2)c(-c2ccc(S(C)(=O)=O)cc2)o1", "melting point": "183 to 185"}
{"smiles": "COc1ccc(S(=O)(=O)C(C)(Cc2ccc(-c3ccccc3)cc2)C(=O)O)cc1", "note": "(stereo unspecified)", "melting point": 161}
{"smiles": "CCCOc1ccc(S(=O)(=O)N2CCN(CC)CC2)cc1-c1nc2cc3ncn(Cc4ccccc4)c3cc2c(=O)[nH]1", "melting point": "135 to 137"}
{"smiles": "CC1CCC(n2ncc(-c3ccc(S(C)(=O)=O)cc3)c(-c3ccc(F)cc3)c2=O)C1", "note": "(stereo unspecified)", "melting point": "169 to 171"}
{"smiles": "CN1C(=O)C(NC(=O)NC23CC4CC(CC(C4)C2)C3)N=C(c2ccccc2)c2ccccc21", "note": "(stereo unspecified)", "melting point": "264 to 265"}
{"smiles": "O=C(C=Cc1cccnc1)C=Cc1cccnc1", "melting point": "148 to 149"}
{"smiles": "O=C(O)C=CC(=O)c1ccc(Oc2cccc(Cl)c2)cc1", "melting point": "110 to 111"}
{"smiles": "O=C1c2ccc3cc(C(=O)N4CCN(Cc5ccccc5)CC4)cnc3c2N=CC1[N+](=O)[O-]", "note": "(stereo unspecified)", "melting point": "213 to 216"}
{"smiles": "O=[N+]([O-])c1cccc(-c2cnc3[nH]c4ccccc4c3c2)c1", "melting point": "> 220"}
{"smiles": "Nc1c(CC(=O)O)cccc1S(=O)(=O)c1ccc(Cl)cc1", "melting point": "139 to 141"}
{"smiles": "COCCN1CCSc2ccc(Nc3ncc(Cl)c(N[C@@H]4CCCC[C@H]4NS(C)(=O)=O)n3)cc2C1", "melting point": "140 to 143"}
{"smiles": "CCC(CC)(CC(=O)Nc1cccc(OCc2ccc3cccc(F)c3n2)c1)C(=O)O", "melting point": "128 to 129"}
{"smiles": "CCCCCC(=O)C=Cc1ccc(CCCCCCCC(=O)O)o1", "melting point": "58 to 59"}
{"smiles": "CCCc1cc(C(O)(CC)CC)ccc1-c1cc(O)ccc1CC", "melting point": 130}
{"smiles": "CCCCOc1ccc(Cl)cc1C(=O)NCCc1ccc(CC(=O)OCC)cc1", "melting point": 80}
{"smiles": "CCCCCCC(C(=O)O)n1ccc2cc(-c3ccccc3C(=O)O)ccc21", "note": "(stereo unspecified)", "melting point": "115 to 120"}
{"smiles": "Nc1nnc(N2CCN(CCOc3ccccc3)CC2)[nH]1", "melting point": "131 to 133"}
{"smiles": "CCOC(=O)c1nc2ccc(Cl)cc2c(=O)[nH]1", "melting point": "249 to 251"}
{"smiles": "CCCC(C)(N)Cc1c[nH]c2ccccc12", "note": "(stereo unspecified)", "melting point": "73.5 to 74.5"}
{"smiles": "N#Cc1cc([N+](=O)[O-])ccc1OCc1ccc2ccccc2n1", "melting point": "161 to 162"}
{"smiles": "COc1ccc(Cn2nc(-n3cnn(Cc4ccc(F)cc4)c3=O)cc2C(=O)NCc2cccnc2)cc1", "melting point": "210 to 211"}
{"smiles": "Cc1c(N2C(=O)CCC2=O)nc(C)n2c1c(CCCl)c1ccccc12", "melting point": "232 to 234"}
{"smiles": "Cc1c(F)c(N2CCC(C)(CN)C2)cc2c1c(=O)c(C(=O)O)cn2C1CC1", "note": "(stereo unspecified)", "melting point": "250 to 252"}
{"smiles": "CC(C)(C)NCC(O)COc1ccc(-c2nc(C(F)(F)F)c[nH]2)cc1", "note": "(stereo unspecified)", "melting point": 186}
{"smiles": "CCCOc1ccccc1-c1nc2nc(N(C)C)nnc2c(=O)[nH]1", "melting point": "258 to 259"}
{"smiles": "CN(C)Cc1ccc2cc(NC(=O)c3ccc(-c4ccccc4)cc3)ccc2n1", "melting point": "191 to 194"}
{"smiles": "Cc1cc2cc(CN3CCCC3)cnc2cc1NC(=O)c1ccc(-c2ccc(F)cc2F)cc1", "melting point": "158 to 160"}
{"smiles": "FC(F)(F)Sc1c(-c2ccc(Cl)cc2)[nH]c(C(F)(F)F)c1Br", "melting point": "87 to 88.5"}
{"smiles": "CC(C)c1cccc(C(C)C)c1NC(=O)CN1CCN(CCSc2nc3cccc([N+](=O)[O-])c3o2)CC1", "melting point": "153 to 155"}
